According to patent US20250302781A1, “METHOD FOR PRETREATING RELAPSING CANCER” (priority 2022, published 2025):

Tests used:
[1] = tested on: SU-DHL cell line (SU DHL 8); assay: WST 1 colorimetric cell proliferation assay, SU-DHL cell line; format: cell-based, human; conditions: for effect of valproic acid pretreatment on cell proliferation (percent growth of treated cells): 48 h pretreatment 1 mM valproic acid
Protocol: (§1) In this example the combined effect of valproic acid and three different compounds as well as the single treatment on the growth of two cell lines were measured by WST 1 assay.
(§2) The cell lines used where: • SU DHL 8: human B cell lymphoma, and • WSU NHL: human B cell lymphoma
The WST 1 colorimetric assay comprised providing suspended cells (5000 cells/well) in the wells of a well plate. Tetrazolium salt (WST 1) was added to the cells and thereby colored the fluid in the wells red. Live cells reduce the tetrazolium salt via intermediate electron acceptors and forms a formazan product and the fluid in the cells turn yellow. The extent of color change reflects the proliferation of the cells and is read out as optical absorbance at 420 nm. […] Additionally, 10% DMSO was used as positive control.
(§3) The cells of each cell line were incubated in a pretreatment step with 1 mM valproic acid for 48 hours followed by a treatment step with the respective compound for 24 or 48 hours, as shown in table 1 below: […]

WSU-NHL cell line = assay: WST 1 colorimetric cell proliferation assay, WSU-NHL cell line; format: cell-based, human; conditions: for effect of valproic acid pretreatment on cell proliferation (percent growth of treated cells): 48 h pretreatment 1 mM valproic acid
Protocol: as §1, §2
The WST 1 colorimetric assay comprised providing suspended cells (5000 cells/well) in the wells of a well plate. Tetrazolium salt (WST 1) was added to the cells and thereby colored the fluid in the wells red. Live cells reduce the tetrazolium salt via intermediate electron acceptors and forms a formazan product and the fluid in the cells turn yellow. The extent of color change reflects the proliferation of the cells and is read out as optical absorbance at 420 nm. Both cell lines were determined to be able to tolerate concentrations of up to 1% Dimethyl sulfoxide (DMSO), and this DMSO concentration was used as negative control. Additionally, 10% DMSO was used as positive control.
as §3

[2] = FIG. 2B, 5 μM of compound 48 h after 48 h 1 mM valproic acid, normalized to untreated control cells

SMILES: Cn1c(CCCC(=O)O)nc2cc(N(CCCl)CCCl)ccc21 [bendamustine, 1H-Benzimidazole-2-butanoic acid, 5-[bis(2-chloroethyl)amino]-1-methyl-]
- cell proliferation, combination with VPA ([1]; FIG. 4A, 25 μM bendamustine 48 h after 48 h 1 mM VPA, normalized to 1/DMSO treated cells): killed all cancer cells
- effect on cell proliferation after valproic acid pretreatment (WSU-NHL cell line; FIG. 1B, 5 μM bendamustine 24 h after 48 h 1 mM valproic acid, normalized to untreated control cells): Especially significant effects
- effect on cell proliferation after valproic acid pretreatment (WSU-NHL cell line; [2]): Especially significant effects

SMILES: N.N.O=C([O-])C1(C(=O)[O-])CCC1.[Pt+2] [carboplatin, Platinum, diammine[1,1-cyclobutanedicarboxylato(2-)-KO,KO″ ]-, (SP-4-2)-]
- cells left alive, combination with VPA ([1]; FIG. 4B, 5 μM carboplatin 48 h after 48 h 1 mM VPA, normalized to untreated control cells): about 10 cells
- cells left alive, combination with VPA ([1]; FIG. 4B, 25 μM carboplatin 48 h after 48 h 1 mM VPA, normalized to untreated control cells): about 10 cells
- effect on cell proliferation after valproic acid pretreatment (WSU-NHL cell line; [2]): Especially significant effects

SMILES: Nc1ccn([C@@H]2O[C@H](CO)[C@@H](O)C2(F)F)c(=O)n1 [gemcitabine, Cytidine, 2′-deoxy-2′,2′-difluoro-]
- cell proliferation, combination with VPA ([1]; FIG. 4A, 25 nM gemcitabine 48 h after 48 h 1 mM VPA, normalized to 1/DMSO treated cells): killed all cancer cells
- effect on cell proliferation after valproic acid pretreatment (WSU-NHL cell line; FIG. 1B, 5 nM gemcitabine 24 h after 48 h 1 mM valproic acid, normalized to untreated control cells): Especially significant effects
- effect on cell proliferation after valproic acid pretreatment (WSU-NHL cell line; FIG. 2B, 5 nM gemcitabine 48 h after 48 h 1 mM valproic acid, normalized to untreated control cells): Especially significant effects

SMILES: CCCC(CCC)C(=O)O [valproic acid]
- effect of valproic acid pretreatment on cell proliferation (percent growth of treated cells) ([1]; FIG. 3A, then 24 h treatment with the respective compounds, normalized to 1% DMSO treated cells): increased the effect of the 24 h treatment
- effect of valproic acid pretreatment on cell proliferation (percent growth of treated cells) ([1]; FIG. 3B, then 24 h treatment with the respective compounds, normalized to untreated control cells): increased the effect of the 24 h treatment
- effect of valproic acid pretreatment on cell proliferation (percent growth of treated cells) ([1]; FIG. 4A, then 48 h treatment with the respective compounds, normalized to 1/DMSO treated cells): increased the effect of the 48 h treatment
- effect of valproic acid pretreatment on cell proliferation (percent growth of treated cells) ([1]; FIG. 4B, then 48 h treatment with the respective compounds, normalized to untreated control cells): increased the effect of the 48 h treatment
- effect of valproic acid pretreatment on cell proliferation (percent growth of treated cells) (WSU-NHL cell line; FIG. 1A, then 24 h treatment with bendamustine, gemcitabine or carboplatin, normalized to 1% DMSO treated cells): increased the effect of the 24 h treatment
- effect of valproic acid pretreatment on cell proliferation (percent growth of treated cells) (WSU-NHL cell line; FIG. 1B, then 24 h treatment with the respective compounds, normalized to untreated control cells): increased the effect of the 24 h treatment
- effect of valproic acid pretreatment on cell proliferation (percent growth of treated cells) (WSU-NHL cell line; FIG. 2A, then 48 h treatment with the respective compounds, normalized to 1/DMSO treated cells): increased the effect of the 48 h treatment
- effect of valproic acid pretreatment on cell proliferation (percent growth of treated cells) (WSU-NHL cell line; FIG. 2B, then 48 h treatment with the respective compounds, normalized to untreated control cells): increased the effect of the 48 h treatment
